Tested on: not listed separately
Assay: Resistance fold, ratio of EC50 for HIV1 harboring reverse transcriptase Y181C mutant […] to EC50 for wild type HIV1 […]
Format: functional
Conditions: not given

Row | SMILES | Ratio EC50
1 | CCCC(C)Nc1cc(Oc2c(OC)cc3cc(C#N)ccc3c2OC)nc(Nc2ccc(C#N)cc2)n1 (configuration not stated) | 8
2 | CCCCCC(C)Nc1cc(Oc2c(OC)cc3cc(C#N)ccc3c2OC)nc(Nc2ccc(C#N)cc2)n1 (configuration not stated) | 26
3 | COc1cc2cc(C#N)ccc2c(OC)c1Oc1cc(NC2CCC2)nc(Nc2ccc(C#N)cc2)n1 | 9

Tested on: not listed separately
Assay: Resistance fold, ratio of EC50 for HIV1 harboring reverse transcriptase E138K mutant […] to EC50 for wild type HIV1 […]
Format: functional
Conditions: not given

Row | SMILES | Ratio EC50
4 | CCCC(C)Nc1cc(Oc2c(OC)cc3cc(C#N)ccc3c2OC)nc(Nc2ccc(C#N)cc2)n1 (configuration not stated) | 3
5 | CCCCCC(C)Nc1cc(Oc2c(OC)cc3cc(C#N)ccc3c2OC)nc(Nc2ccc(C#N)cc2)n1 (configuration not stated) | 1
6 | COc1cc2cc(C#N)ccc2c(OC)c1Oc1cc(NC2CCC2)nc(Nc2ccc(C#N)cc2)n1 | 5

Tested on: not listed separately
Assay: Resistance fold, ratio of EC50 for HIV1 harboring reverse transcriptase L100I mutant […] to EC50 for wild type HIV1 […]
Format: functional
Conditions: not given

Row | SMILES | Ratio EC50
7 | CCCC(C)Nc1cc(Oc2c(OC)cc3cc(C#N)ccc3c2OC)nc(Nc2ccc(C#N)cc2)n1 (configuration not stated) | 28
8 | CCCCCC(C)Nc1cc(Oc2c(OC)cc3cc(C#N)ccc3c2OC)nc(Nc2ccc(C#N)cc2)n1 (configuration not stated) | 102
9 | COc1cc2cc(C#N)ccc2c(OC)c1Oc1cc(NC2CCC2)nc(Nc2ccc(C#N)cc2)n1 | 28

Tested on: Human immunodeficiency virus 1
Assay: Antiviral activity against HIV1 harboring reverse transcriptase Y181C mutant infected in human MT4 cells assessed as protection against virus-induced cytopathic effect incubated for 5 days by MTT assay
Format: functional, organism-based
Conditions: Human immunodeficiency virus 1, MT4, 120 h

Row | SMILES | EC50 [µM]
10 | CCCC(C)Nc1cc(Oc2c(OC)cc3cc(C#N)ccc3c2OC)nc(Nc2ccc(C#N)cc2)n1 (configuration not stated) | 0.66
11 | CCCCCC(C)Nc1cc(Oc2c(OC)cc3cc(C#N)ccc3c2OC)nc(Nc2ccc(C#N)cc2)n1 (configuration not stated) | 40
12 | COc1cc2cc(C#N)ccc2c(OC)c1Oc1cc(NC2CCC2)nc(Nc2ccc(C#N)cc2)n1 | 0.33

Tested on: Human immunodeficiency virus 2
Assay: Anti-HIV activity against HIV2 ROD infected in human MT4 cells assessed as reduction in virus-induced cytopathic effect incubated for 5 days by MTT assay
Format: functional, organism-based
Conditions: Human immunodeficiency virus 2, ROD, MT4, 120 h

Row | SMILES | EC50 [µM]
13 | CCCC(C)Nc1cc(Oc2c(OC)cc3cc(C#N)ccc3c2OC)nc(Nc2ccc(C#N)cc2)n1 (configuration not stated) | > 1000
14 | CCCCCC(C)Nc1cc(Oc2c(OC)cc3cc(C#N)ccc3c2OC)nc(Nc2ccc(C#N)cc2)n1 (configuration not stated) | > 1000
15 | COc1cc2cc(C#N)ccc2c(OC)c1Oc1cc(NC2CCC2)nc(Nc2ccc(C#N)cc2)n1 | > 1000

Tested on: not listed separately
Assay: Resistance fold, ratio of EC50 for HIV1 harboring reverse transcriptase K103N/Y181C double mutant […] to EC50 for wild type HIV1 […]
Format: functional
Conditions: not given

Row | SMILES | Ratio EC50
16 | CCCC(C)Nc1cc(Oc2c(OC)cc3cc(C#N)ccc3c2OC)nc(Nc2ccc(C#N)cc2)n1 (configuration not stated) | 112
17 | CCCCCC(C)Nc1cc(Oc2c(OC)cc3cc(C#N)ccc3c2OC)nc(Nc2ccc(C#N)cc2)n1 (configuration not stated) | >649
18 | COc1cc2cc(C#N)ccc2c(OC)c1Oc1cc(NC2CCC2)nc(Nc2ccc(C#N)cc2)n1 | 86

Molecular target: Human immunodeficiency virus type 1 reverse transcriptase (Human immunodeficiency virus 1, UniProt Q72547)
Assay: Inhibition of wild type HIV1 reverse transcriptase using oligo(dT)16 as primer measured after 40 mins by picogreen-dye based spectrofluorimetric analysis
Conditions: not given

Row | SMILES | IC50 [µM]
19 | CCCC(C)Nc1cc(Oc2c(OC)cc3cc(C#N)ccc3c2OC)nc(Nc2ccc(C#N)cc2)n1 (configuration not stated) | 0.4
20 | CCCCCC(C)Nc1cc(Oc2c(OC)cc3cc(C#N)ccc3c2OC)nc(Nc2ccc(C#N)cc2)n1 (configuration not stated) | 1.2
21 | COc1cc2cc(C#N)ccc2c(OC)c1Oc1cc(NC2CCC2)nc(Nc2ccc(C#N)cc2)n1 | 0.11

Tested on: Human immunodeficiency virus 1
Assay: Antiviral activity against HIV1 harboring reverse transcriptase F227L/V106A mutant infected in human MT4 cells assessed as protection against virus-induced cytopathic effect incubated for 5 days by MTT assay
Format: functional, organism-based
Conditions: Human immunodeficiency virus 1, MT4, 120 h

Row | SMILES | EC50 [µM]
22 | CCCC(C)Nc1cc(Oc2c(OC)cc3cc(C#N)ccc3c2OC)nc(Nc2ccc(C#N)cc2)n1 (configuration not stated) | > 1000
23 | CCCCCC(C)Nc1cc(Oc2c(OC)cc3cc(C#N)ccc3c2OC)nc(Nc2ccc(C#N)cc2)n1 (configuration not stated) | > 1000
24 | COc1cc2cc(C#N)ccc2c(OC)c1Oc1cc(NC2CCC2)nc(Nc2ccc(C#N)cc2)n1 | 145

Tested on: not listed separately
Assay: Resistance fold, ratio of EC50 for HIV1 harboring reverse transcriptase K103N mutant […] to EC50 for wild type HIV1 […]
Format: functional
Conditions: not given

Row | SMILES | Ratio EC50
25 | CCCC(C)Nc1cc(Oc2c(OC)cc3cc(C#N)ccc3c2OC)nc(Nc2ccc(C#N)cc2)n1 (configuration not stated) | 1
26 | CCCCCC(C)Nc1cc(Oc2c(OC)cc3cc(C#N)ccc3c2OC)nc(Nc2ccc(C#N)cc2)n1 (configuration not stated) | 1
27 | COc1cc2cc(C#N)ccc2c(OC)c1Oc1cc(NC2CCC2)nc(Nc2ccc(C#N)cc2)n1 | 1

Tested on: not listed separately
Assay: Selectivity index, ratio of CC50 for cytotoxicity against human MT4 cells to EC50 of Anti-HIV activity against HIV-1 IIIB infected in human MT4
Format: toxicity, cell-based
Conditions: read-out: Selectivity Index

Row | SMILES | selectivity ratio
28 | CCCC(C)Nc1cc(Oc2c(OC)cc3cc(C#N)ccc3c2OC)nc(Nc2ccc(C#N)cc2)n1 (configuration not stated) | > 3140
29 | CCCCCC(C)Nc1cc(Oc2c(OC)cc3cc(C#N)ccc3c2OC)nc(Nc2ccc(C#N)cc2)n1 (configuration not stated) | > 151
30 | COc1cc2cc(C#N)ccc2c(OC)c1Oc1cc(NC2CCC2)nc(Nc2ccc(C#N)cc2)n1 | > 7040

Tested on: Human immunodeficiency virus 1
Assay: Antiviral activity against HIV1 harboring reverse transcriptase K103N mutant infected in human MT4 cells assessed as protection against virus-induced cytopathic effect incubated for 5 days by MTT assay
Format: functional, organism-based
Conditions: Human immunodeficiency virus 1, MT4, 120 h

Row | SMILES | EC50 [µM] | IC50 [µM]
31 | CCCC(C)Nc1cc(Oc2c(OC)cc3cc(C#N)ccc3c2OC)nc(Nc2ccc(C#N)cc2)n1 (configuration not stated) | 0.064 | 
32 | CCCCCC(C)Nc1cc(Oc2c(OC)cc3cc(C#N)ccc3c2OC)nc(Nc2ccc(C#N)cc2)n1 (configuration not stated) | 1.33 | 
33 | COc1cc2cc(C#N)ccc2c(OC)c1Oc1cc(NC2CCC2)nc(Nc2ccc(C#N)cc2)n1 |  | 0.044

Tested on: not listed separately
Assay: Cytotoxicity against human MT4 cells assessed as reduction in cell viability incubated for 5 days by MTT assay
Format: cell-based
Conditions: human, MT4 cells; time 5 day

Row | SMILES | CC50 at 120 h [µM]
34 | CCCC(C)Nc1cc(Oc2c(OC)cc3cc(C#N)ccc3c2OC)nc(Nc2ccc(C#N)cc2)n1 (configuration not stated) | > 125
35 | CCCCCC(C)Nc1cc(Oc2c(OC)cc3cc(C#N)ccc3c2OC)nc(Nc2ccc(C#N)cc2)n1 (configuration not stated) | > 125
36 | COc1cc2cc(C#N)ccc2c(OC)c1Oc1cc(NC2CCC2)nc(Nc2ccc(C#N)cc2)n1 | > 125

Tested on: not listed separately
Assay: Resistance fold, ratio of EC50 for HIV1 harboring reverse transcriptase Y188L mutant […] to EC50 for wild type HIV1 […]
Format: functional
Conditions: not given

Row | SMILES | Ratio EC50
37 | CCCC(C)Nc1cc(Oc2c(OC)cc3cc(C#N)ccc3c2OC)nc(Nc2ccc(C#N)cc2)n1 (configuration not stated) | 139
38 | CCCCCC(C)Nc1cc(Oc2c(OC)cc3cc(C#N)ccc3c2OC)nc(Nc2ccc(C#N)cc2)n1 (configuration not stated) | >650
39 | COc1cc2cc(C#N)ccc2c(OC)c1Oc1cc(NC2CCC2)nc(Nc2ccc(C#N)cc2)n1 | 68

Tested on: Human immunodeficiency virus 1
Assay: Antiviral activity against HIV1 harboring reverse transcriptase Y188L mutant infected in human MT4 cells assessed as protection against virus-induced cytopathic effect incubated for 5 days by MTT assay
Format: functional, organism-based
Conditions: Human immunodeficiency virus 1, MT4, 120 h

Row | SMILES | EC50 [µM]
40 | CCCC(C)Nc1cc(Oc2c(OC)cc3cc(C#N)ccc3c2OC)nc(Nc2ccc(C#N)cc2)n1 (configuration not stated) | 10.9
41 | CCCCCC(C)Nc1cc(Oc2c(OC)cc3cc(C#N)ccc3c2OC)nc(Nc2ccc(C#N)cc2)n1 (configuration not stated) | > 1000
42 | COc1cc2cc(C#N)ccc2c(OC)c1Oc1cc(NC2CCC2)nc(Nc2ccc(C#N)cc2)n1 | 2.47

Tested on: Human immunodeficiency virus 1
Assay: Anti-HIV activity against HIV-1 IIIB infected in human MT4 cells assessed as reduction in virus-induced cytopathic effect incubated for 5 days by MTT assay
Format: functional, organism-based
Conditions: Human immunodeficiency virus 1, IIIB, MT4, 120 h

Row | SMILES | EC50 [µM]
43 | CCCC(C)Nc1cc(Oc2c(OC)cc3cc(C#N)ccc3c2OC)nc(Nc2ccc(C#N)cc2)n1 (configuration not stated) | 0.078
44 | CCCCCC(C)Nc1cc(Oc2c(OC)cc3cc(C#N)ccc3c2OC)nc(Nc2ccc(C#N)cc2)n1 (configuration not stated) | 1.54
45 | COc1cc2cc(C#N)ccc2c(OC)c1Oc1cc(NC2CCC2)nc(Nc2ccc(C#N)cc2)n1 | 0.037

Tested on: Human immunodeficiency virus 1
Assay: Antiviral activity against HIV1 harboring reverse transcriptase L100I mutant infected in human MT4 cells assessed as protection against virus-induced cytopathic effect incubated for 5 days by MTT assay
Format: functional, organism-based
Conditions: Human immunodeficiency virus 1, MT4, 120 h

Row | SMILES | EC50 [µM]
46 | CCCC(C)Nc1cc(Oc2c(OC)cc3cc(C#N)ccc3c2OC)nc(Nc2ccc(C#N)cc2)n1 (configuration not stated) | 2.17
47 | CCCCCC(C)Nc1cc(Oc2c(OC)cc3cc(C#N)ccc3c2OC)nc(Nc2ccc(C#N)cc2)n1 (configuration not stated) | 157
48 | COc1cc2cc(C#N)ccc2c(OC)c1Oc1cc(NC2CCC2)nc(Nc2ccc(C#N)cc2)n1 | 1.02

Tested on: Human immunodeficiency virus 1
Assay: Antiviral activity against HIV1 harboring reverse transcriptase K103N/Y181C double mutant infected in human MT4 cells assessed as protection against virus-induced cytopathic effect incubated for 5 days by MTT assay
Format: functional, organism-based
Conditions: Human immunodeficiency virus 1, MT4, 120 h

Row | SMILES | EC50 [µM]
49 | CCCC(C)Nc1cc(Oc2c(OC)cc3cc(C#N)ccc3c2OC)nc(Nc2ccc(C#N)cc2)n1 (configuration not stated) | 8.77
50 | CCCCCC(C)Nc1cc(Oc2c(OC)cc3cc(C#N)ccc3c2OC)nc(Nc2ccc(C#N)cc2)n1 (configuration not stated) | > 1000
51 | COc1cc2cc(C#N)ccc2c(OC)c1Oc1cc(NC2CCC2)nc(Nc2ccc(C#N)cc2)n1 | 3.13

Tested on: not listed separately
Assay: Resistance fold, ratio of EC50 for HIV1 harboring reverse transcriptase F227L/V106A double mutant […] to EC50 for wild type HIV1 […]
Format: functional
Conditions: not given

Row | SMILES | Ratio EC50
52 | CCCC(C)Nc1cc(Oc2c(OC)cc3cc(C#N)ccc3c2OC)nc(Nc2ccc(C#N)cc2)n1 (configuration not stated) | >12771
53 | CCCCCC(C)Nc1cc(Oc2c(OC)cc3cc(C#N)ccc3c2OC)nc(Nc2ccc(C#N)cc2)n1 (configuration not stated) | >649
54 | COc1cc2cc(C#N)ccc2c(OC)c1Oc1cc(NC2CCC2)nc(Nc2ccc(C#N)cc2)n1 | 3981

Tested on: Human immunodeficiency virus 1
Assay: Antiviral activity against HIV1 harboring reverse transcriptase E138K mutant infected in human MT4 cells assessed as protection against virus-induced cytopathic effect incubated for 5 days by MTT assay
Format: functional, organism-based
Conditions: Human immunodeficiency virus 1, MT4, 120 h

Row | SMILES | EC50 [µM]
55 | CCCC(C)Nc1cc(Oc2c(OC)cc3cc(C#N)ccc3c2OC)nc(Nc2ccc(C#N)cc2)n1 (configuration not stated) | 0.25
56 | CCCCCC(C)Nc1cc(Oc2c(OC)cc3cc(C#N)ccc3c2OC)nc(Nc2ccc(C#N)cc2)n1 (configuration not stated) | 2.22
57 | COc1cc2cc(C#N)ccc2c(OC)c1Oc1cc(NC2CCC2)nc(Nc2ccc(C#N)cc2)n1 | 0.084

— ChEMBL document CHEMBL5036347, “Design of the naphthyl-diarylpyrimidines as potent non-nucleoside reverse transcriptase inhibitors (NNRTIs) via structure-based extension into the entrance channel” (Eur J Med Chem, 2021)
